Measurements as given in paper PMC4823954, “From fighting depression to conquering tumors: a novel tricyclic thiazepine compound as a tubulin polymerization inhibitor” (Cell Death & Disease, 2016).

How the values were obtained:
Experiment in all cases: KINOMEscan
Assay type in all cases: binding
Details in all cases: read-out: % Ctrl
[1] = target: T1, IGF1R (Homo sapiens, UniProt P08069)
T1 construct: purchased DiscoveRx KINOMEscan
Description: (§1) The binding assay for 442 non-mutant kinases was performed using KINOMEscan (DiscoveRx Corporation, Fremont, CA, USA) as reported previously.[58], [59] TBPT was screened at concentrations of 5 and 10 μM to identify the affected kinases. KINOMEscan is based on a competition reaction that quantitatively measures the ability of a test compound to compete with an active site-directed ligand for binding to the kinase active site. […] After the assay plates were incubated with shaking for 1 h, the liganded beads were washed with washing buffer (1 × PBS and 0.05% Tween 20). Then, the beads were re-suspended in elution buffer (1 × PBS, 0.05% Tween 20, and 0.5 μM ligand) and incubated with shaking for 30 min. The kinase concentration in the eluates was measured via qPCR. The results are represented as ‘%Ctrl', which was calculated using the following formula: (test compound signal–positive control signal)/(DMSO signal–positive control signal) × 100%. A lower % Ctrl indicates stronger binding to the kinase active site.

[2] = target: T2, ABL1(H396P)-nonphosphorylated (Homo sapiens, UniProt P00519, H396P)
T2 construct: purchased DiscoveRx KINOMEscan
Description: as §1

[3] = target: T3, FLT3(N841I) (Homo sapiens, UniProt P36888, N841I)
T3 construct: purchased DiscoveRx KINOMEscan
Description: as §1

[4] = target: T4, TAOK3 (Homo sapiens, UniProt Q9H2K8)
T4 construct: purchased DiscoveRx KINOMEscan
Description: as §1

[5] = target: T5, STK36 (Homo sapiens, UniProt Q9NRP7)
T5 construct: purchased DiscoveRx KINOMEscan
Description: as §1

[6] = target: T6, VEGFR2 (Homo sapiens, UniProt P35968)
T6 construct: purchased DiscoveRx KINOMEscan
Description: as §1

[7] = target: T7, FYN (Homo sapiens, UniProt P06241)
T7 construct: purchased DiscoveRx KINOMEscan
Description: as §1

[8] = target: T8, AAK1 (Homo sapiens, UniProt Q2M2I8)
T8 construct: purchased DiscoveRx KINOMEscan
Description: as §1

[9] = target: T9, HIPK1 (Homo sapiens, UniProt Q86Z02)
T9 construct: purchased DiscoveRx KINOMEscan
T9 sequence (Q86Z02 whole entry): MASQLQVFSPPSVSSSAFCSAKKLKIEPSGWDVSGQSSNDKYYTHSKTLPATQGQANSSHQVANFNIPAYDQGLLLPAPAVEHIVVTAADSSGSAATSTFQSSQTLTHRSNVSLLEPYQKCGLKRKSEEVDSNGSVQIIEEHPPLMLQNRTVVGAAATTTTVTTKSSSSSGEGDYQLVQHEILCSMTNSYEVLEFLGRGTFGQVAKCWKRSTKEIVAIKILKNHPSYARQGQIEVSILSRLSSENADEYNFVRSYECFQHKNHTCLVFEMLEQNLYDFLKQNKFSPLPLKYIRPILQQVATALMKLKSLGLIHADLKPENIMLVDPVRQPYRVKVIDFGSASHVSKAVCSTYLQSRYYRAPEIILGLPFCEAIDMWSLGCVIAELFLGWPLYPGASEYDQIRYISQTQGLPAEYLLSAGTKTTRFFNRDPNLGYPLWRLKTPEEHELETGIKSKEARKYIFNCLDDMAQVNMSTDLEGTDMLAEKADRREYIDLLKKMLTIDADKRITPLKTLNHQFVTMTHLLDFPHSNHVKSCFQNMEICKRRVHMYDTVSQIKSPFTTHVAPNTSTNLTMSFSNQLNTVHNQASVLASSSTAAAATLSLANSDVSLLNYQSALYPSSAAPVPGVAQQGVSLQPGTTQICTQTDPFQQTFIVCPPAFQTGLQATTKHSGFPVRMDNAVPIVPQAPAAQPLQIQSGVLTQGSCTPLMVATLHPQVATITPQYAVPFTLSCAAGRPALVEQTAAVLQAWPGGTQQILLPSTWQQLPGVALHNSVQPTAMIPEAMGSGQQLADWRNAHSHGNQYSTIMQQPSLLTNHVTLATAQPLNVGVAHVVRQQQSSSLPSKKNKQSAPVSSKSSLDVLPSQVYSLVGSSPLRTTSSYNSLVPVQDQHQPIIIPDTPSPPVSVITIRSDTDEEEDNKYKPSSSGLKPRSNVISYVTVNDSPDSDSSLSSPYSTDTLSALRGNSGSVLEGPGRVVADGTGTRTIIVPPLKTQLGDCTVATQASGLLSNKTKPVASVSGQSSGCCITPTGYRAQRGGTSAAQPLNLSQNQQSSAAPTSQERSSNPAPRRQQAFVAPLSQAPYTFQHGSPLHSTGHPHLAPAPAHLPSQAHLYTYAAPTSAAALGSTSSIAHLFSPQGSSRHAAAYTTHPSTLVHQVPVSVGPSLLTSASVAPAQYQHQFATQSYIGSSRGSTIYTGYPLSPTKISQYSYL
Description: as §1

[10] = target: T10, NEK6 (Homo sapiens, UniProt Q9HC98)
T10 construct: purchased DiscoveRx KINOMEscan
T10 sequence (Q9HC98 whole entry): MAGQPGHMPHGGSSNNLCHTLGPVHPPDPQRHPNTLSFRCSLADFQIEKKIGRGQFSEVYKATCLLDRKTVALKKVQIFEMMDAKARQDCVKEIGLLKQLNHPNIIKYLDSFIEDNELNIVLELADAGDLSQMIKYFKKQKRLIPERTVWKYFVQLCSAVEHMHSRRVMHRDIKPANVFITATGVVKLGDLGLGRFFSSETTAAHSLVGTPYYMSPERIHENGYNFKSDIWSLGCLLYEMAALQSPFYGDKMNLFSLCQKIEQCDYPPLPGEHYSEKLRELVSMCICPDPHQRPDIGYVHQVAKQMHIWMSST
Description: as §1

[11] = target: T11, ADCK4 (Homo sapiens, UniProt Q96D53)
T11 construct: purchased DiscoveRx KINOMEscan
Description: as §1

[12] = target: T12, MET (Homo sapiens, UniProt P08581)
T12 construct: purchased DiscoveRx KINOMEscan
Description: as §1

[13] = target: T13, TRKC (Homo sapiens, UniProt Q16288)
T13 construct: purchased DiscoveRx KINOMEscan
Description: as §1

[14] = target: T14, CDKL2 (Homo sapiens, UniProt Q92772)
T14 construct: purchased DiscoveRx KINOMEscan
Description: as §1

[15] = target: T15, HPK1 (Homo sapiens, UniProt Q92918)
T15 construct: purchased DiscoveRx KINOMEscan
Description: as §1

[16] = target: T16, MAP4K3 (Homo sapiens, UniProt Q8IVH8)
T16 construct: purchased DiscoveRx KINOMEscan
Description: as §1

[17] = target: T17, IRAK1 (Homo sapiens, UniProt P51617)
T17 construct: purchased DiscoveRx KINOMEscan
Description: as §1

[18] = target: T18, FGFR1 (Homo sapiens, UniProt P11362)
T18 construct: purchased DiscoveRx KINOMEscan
T18 sequence (P11362 22-822): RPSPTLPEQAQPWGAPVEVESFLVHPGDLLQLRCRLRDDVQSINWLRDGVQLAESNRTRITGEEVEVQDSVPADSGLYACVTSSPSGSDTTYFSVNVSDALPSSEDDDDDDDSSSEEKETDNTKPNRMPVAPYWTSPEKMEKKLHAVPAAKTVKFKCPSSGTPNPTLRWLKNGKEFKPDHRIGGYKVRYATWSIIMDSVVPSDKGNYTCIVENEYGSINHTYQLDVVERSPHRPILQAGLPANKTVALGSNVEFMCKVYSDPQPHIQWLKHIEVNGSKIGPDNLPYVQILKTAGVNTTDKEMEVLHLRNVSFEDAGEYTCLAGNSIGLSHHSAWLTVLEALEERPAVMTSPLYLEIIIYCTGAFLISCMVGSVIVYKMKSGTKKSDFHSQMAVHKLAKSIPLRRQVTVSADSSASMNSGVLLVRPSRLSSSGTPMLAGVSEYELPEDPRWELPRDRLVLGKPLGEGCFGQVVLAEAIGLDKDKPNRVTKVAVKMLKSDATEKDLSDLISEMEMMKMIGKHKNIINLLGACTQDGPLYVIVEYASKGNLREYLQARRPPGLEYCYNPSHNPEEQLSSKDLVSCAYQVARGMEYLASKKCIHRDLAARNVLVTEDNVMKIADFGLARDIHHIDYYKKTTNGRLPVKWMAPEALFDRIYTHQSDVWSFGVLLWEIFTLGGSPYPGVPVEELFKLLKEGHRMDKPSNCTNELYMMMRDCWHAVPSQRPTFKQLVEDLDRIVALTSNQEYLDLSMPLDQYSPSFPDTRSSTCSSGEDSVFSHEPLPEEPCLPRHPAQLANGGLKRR
Description: as §1

[19] = target: T19, PFTK1 (Homo sapiens, UniProt O94921)
T19 construct: purchased DiscoveRx KINOMEscan
Description: as §1

[20] = target: T20, JAK3(JH1domain-catalytic) (Homo sapiens, UniProt P52333)
T20 construct: JAK3(JH1domain-catalytic); purchased DiscoveRx KINOMEscan
T20 sequence (P52333 813-1124 limits assumed): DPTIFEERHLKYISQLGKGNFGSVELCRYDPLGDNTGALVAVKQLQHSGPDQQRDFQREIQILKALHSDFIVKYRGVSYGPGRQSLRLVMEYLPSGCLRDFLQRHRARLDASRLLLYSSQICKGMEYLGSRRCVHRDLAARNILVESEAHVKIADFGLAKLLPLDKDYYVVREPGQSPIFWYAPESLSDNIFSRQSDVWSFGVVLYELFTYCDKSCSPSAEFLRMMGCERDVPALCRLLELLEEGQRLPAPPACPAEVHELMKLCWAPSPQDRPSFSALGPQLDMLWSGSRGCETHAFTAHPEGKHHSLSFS
Description: as §1

[21] = target: T21, RIPK2 (Homo sapiens, UniProt O43353)
T21 construct: purchased DiscoveRx KINOMEscan
Description: as §1

[22] = target: T22, CDC2L2 (Homo sapiens, UniProt Q9UQ88)
T22 construct: purchased DiscoveRx KINOMEscan
T22 sequence (Q9UQ88 whole entry): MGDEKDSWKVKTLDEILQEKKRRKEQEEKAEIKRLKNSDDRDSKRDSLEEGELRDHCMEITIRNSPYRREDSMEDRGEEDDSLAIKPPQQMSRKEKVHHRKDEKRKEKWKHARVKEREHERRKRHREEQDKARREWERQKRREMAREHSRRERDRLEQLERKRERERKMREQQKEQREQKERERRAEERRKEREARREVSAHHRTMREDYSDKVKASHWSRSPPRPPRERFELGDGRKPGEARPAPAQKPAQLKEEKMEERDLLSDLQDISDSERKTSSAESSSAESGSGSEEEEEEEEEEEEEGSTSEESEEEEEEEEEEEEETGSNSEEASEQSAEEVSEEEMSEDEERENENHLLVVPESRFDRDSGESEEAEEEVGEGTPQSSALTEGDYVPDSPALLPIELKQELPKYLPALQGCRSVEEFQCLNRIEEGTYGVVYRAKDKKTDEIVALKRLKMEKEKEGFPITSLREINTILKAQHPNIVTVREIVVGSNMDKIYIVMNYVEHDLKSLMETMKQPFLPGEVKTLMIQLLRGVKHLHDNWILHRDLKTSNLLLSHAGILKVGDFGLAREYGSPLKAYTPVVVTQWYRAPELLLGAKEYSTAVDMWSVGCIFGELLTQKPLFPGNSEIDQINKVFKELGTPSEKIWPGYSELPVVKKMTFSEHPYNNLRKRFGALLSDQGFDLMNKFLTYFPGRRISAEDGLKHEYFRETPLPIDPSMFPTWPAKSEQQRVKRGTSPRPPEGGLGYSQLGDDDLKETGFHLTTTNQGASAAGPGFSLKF
Description: as §1

[23] = target: T23, CDC2L1 (Homo sapiens, UniProt P21127)
T23 construct: purchased DiscoveRx KINOMEscan
T23 sequence (P21127 whole entry): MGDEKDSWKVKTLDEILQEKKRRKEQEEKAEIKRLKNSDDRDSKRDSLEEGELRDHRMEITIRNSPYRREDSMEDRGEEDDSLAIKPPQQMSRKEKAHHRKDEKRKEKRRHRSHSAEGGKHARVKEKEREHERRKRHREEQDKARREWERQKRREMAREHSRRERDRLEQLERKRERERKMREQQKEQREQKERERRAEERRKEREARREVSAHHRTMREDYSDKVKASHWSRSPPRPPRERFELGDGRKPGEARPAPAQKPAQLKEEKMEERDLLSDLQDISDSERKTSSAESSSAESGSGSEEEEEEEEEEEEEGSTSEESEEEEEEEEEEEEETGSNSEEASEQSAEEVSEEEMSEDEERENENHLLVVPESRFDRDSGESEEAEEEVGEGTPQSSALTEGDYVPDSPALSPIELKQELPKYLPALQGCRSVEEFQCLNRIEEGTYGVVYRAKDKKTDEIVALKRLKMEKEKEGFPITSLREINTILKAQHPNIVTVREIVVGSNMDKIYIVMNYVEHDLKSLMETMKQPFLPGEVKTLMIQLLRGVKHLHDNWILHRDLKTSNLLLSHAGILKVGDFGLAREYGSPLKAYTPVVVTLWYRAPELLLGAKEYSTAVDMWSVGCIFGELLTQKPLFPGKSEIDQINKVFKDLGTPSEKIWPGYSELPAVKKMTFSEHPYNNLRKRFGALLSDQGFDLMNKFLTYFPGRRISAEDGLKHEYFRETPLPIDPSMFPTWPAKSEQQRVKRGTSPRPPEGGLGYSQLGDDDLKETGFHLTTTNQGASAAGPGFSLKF
Description: as §1

[24] = target: T24, NEK1 (Homo sapiens, UniProt Q96PY6)
T24 construct: purchased DiscoveRx KINOMEscan
Description: as §1

[25] = target: T25, DAPK1 (Homo sapiens, UniProt P53355)
T25 construct: purchased DiscoveRx KINOMEscan
Description: as §1

[26] = target: T26, LYN (Homo sapiens, UniProt P07948)
T26 construct: purchased DiscoveRx KINOMEscan
Description: as §1

[27] = target: T27, PCTK3 (Homo sapiens, UniProt Q07002)
T27 construct: purchased DiscoveRx KINOMEscan
Description: as §1

[28] = target: T28, JAK1(JH1domain-catalytic) (Homo sapiens, UniProt P23458)
T28 construct: JAK1(JH1domain-catalytic); purchased DiscoveRx KINOMEscan
Description: as §1

[29] = target: T29, LOK (Homo sapiens, UniProt O94804)
T29 construct: purchased DiscoveRx KINOMEscan
Description: as §1

[30] = target: T30, DCAMKL2 (Homo sapiens, UniProt Q8N568)
T30 construct: purchased DiscoveRx KINOMEscan
T30 sequence (Q8N568 whole entry): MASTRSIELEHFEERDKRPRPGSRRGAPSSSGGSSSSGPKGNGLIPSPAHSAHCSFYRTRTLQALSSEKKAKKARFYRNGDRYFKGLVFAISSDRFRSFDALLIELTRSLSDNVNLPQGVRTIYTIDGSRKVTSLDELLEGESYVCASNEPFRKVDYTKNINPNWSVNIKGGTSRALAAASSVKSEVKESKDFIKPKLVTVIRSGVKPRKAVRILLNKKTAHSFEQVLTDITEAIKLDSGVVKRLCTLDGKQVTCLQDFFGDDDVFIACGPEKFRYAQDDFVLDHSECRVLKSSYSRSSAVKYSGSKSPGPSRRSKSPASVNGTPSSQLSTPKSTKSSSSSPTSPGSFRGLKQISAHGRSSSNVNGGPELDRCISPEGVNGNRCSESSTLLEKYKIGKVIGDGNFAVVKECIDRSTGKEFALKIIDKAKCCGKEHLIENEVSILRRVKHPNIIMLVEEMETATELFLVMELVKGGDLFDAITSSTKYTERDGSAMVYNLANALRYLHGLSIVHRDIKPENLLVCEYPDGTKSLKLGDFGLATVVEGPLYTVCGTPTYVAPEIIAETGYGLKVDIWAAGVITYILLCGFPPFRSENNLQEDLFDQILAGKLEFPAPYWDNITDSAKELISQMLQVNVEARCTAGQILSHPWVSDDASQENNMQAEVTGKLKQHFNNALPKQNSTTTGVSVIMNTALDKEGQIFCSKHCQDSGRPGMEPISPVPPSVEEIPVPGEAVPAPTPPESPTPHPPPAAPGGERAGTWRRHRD
Description: as §1

In the case of Cc1ccc(C2=Nc3cccnc3S(=O)(=O)c3ccccc32)cc1 [TBPT, 6-(p-tolyl)benzo[f] pyrido[2,3-b][1,4] thiazepine 11,11-dioxide], the remaining binding at 5 µM ([1]; 5 μM) was 100%, the remaining binding at 10 µM ([1]; 10 μM) was 79% and the remaining binding at 5 µM ([2]; 5 μM) was 62%. The remaining binding at 10 µM ([2]; 10 μM) was 77%, the remaining binding at 5 µM ([3]; 5 μM) was 85% and the remaining binding at 10 µM ([3]; 10 μM) was 100%. It also gave a remaining binding at 5 µM ([4]; 5 μM) of 89%, a remaining binding at 10 µM ([4]; 10 μM) of 100% and a remaining binding at 5 µM ([5]; 5 μM) of 84%. The remaining binding at 10 µM ([5]; 10 μM) was 100%, the remaining binding at 5 µM ([6]; 5 μM) was 95% and the remaining binding at 10 µM ([6]; 10 μM) was 84%. For the same molecule, the remaining binding at 5 µM ([7]; 5 μM) was 85%, the remaining binding at 10 µM ([7]; 10 μM) was 95% and the remaining binding at 5 µM ([8]; 5 μM) was 100%. The remaining binding at 10 µM ([8]; 10 μM) was 89%, the remaining binding at 5 µM ([9]; 5 μM) was 71% and the remaining binding at 10 µM ([9]; 10 μM) was 63%. For the same molecule, the remaining binding at 5 µM ([10]; 5 μM) was 96%, the remaining binding at 10 µM ([10]; 10 μM) was 95% and the remaining binding at 5 µM ([11]; 5 μM) was 83%. For the same molecule, the remaining binding at 10 µM ([11]; 10 μM) was 94%, the remaining binding at 5 µM ([12]; 5 μM) was 100% and the remaining binding at 10 µM ([12]; 10 μM) was 92%. It also gave a remaining binding at 5 µM ([13]; 5 μM) of 100%, a remaining binding at 10 µM ([13]; 10 μM) of 96% and a remaining binding at 5 µM ([14]; 5 μM) of 95%. The remaining binding at 10 µM ([14]; 10 μM) was 100%, the remaining binding at 5 µM ([15]; 5 μM) was 93% and the remaining binding at 10 µM ([15]; 10 μM) was 100%. For the same molecule, the remaining binding at 5 µM ([16]; 5 μM) was 75%, the remaining binding at 10 µM ([16]; 10 μM) was 91% and the remaining binding at 5 µM ([17]; 5 μM) was 100%. It also gave a remaining binding at 10 µM ([17]; 10 μM) of 93%, a remaining binding at 5 µM ([18]; 5 μM) of 98% and a remaining binding at 10 µM ([18]; 10 μM) of 100%. For the same molecule, the remaining binding at 5 µM ([19]; 5 μM) was 100%, the remaining binding at 10 µM ([19]; 10 μM) was 100% and the remaining binding at 5 µM ([20]; 5 μM) was 100%. The remaining binding at 10 µM ([20]; 10 μM) was 100%, the remaining binding at 5 µM ([21]; 5 μM) was 92% and the remaining binding at 10 µM ([21]; 10 μM) was 97%. For the same molecule, the remaining binding at 5 µM ([22]; 5 μM) was 100%, the remaining binding at 10 µM ([22]; 10 μM) was 100% and the remaining binding at 5 µM ([23]; 5 μM) was 99%. For the same molecule, the remaining binding at 10 µM ([23]; 10 μM) was 100%, the remaining binding at 5 µM ([24]; 5 μM) was 90% and the remaining binding at 10 µM ([24]; 10 μM) was 100%. For the same molecule, the remaining binding at 5 µM ([25]; 5 μM) was 83%, the remaining binding at 10 µM ([25]; 10 μM) was 100% and the remaining binding at 5 µM ([26]; 5 μM) was 87%. The remaining binding at 10 µM ([26]; 10 μM) was 100%, the remaining binding at 5 µM ([27]; 5 μM) was 82% and the remaining binding at 10 µM ([27]; 10 μM) was 100%. It also gave a remaining binding at 5 µM ([28]; 5 μM) of 95%, a remaining binding at 10 µM ([28]; 10 μM) of 89% and a remaining binding at 5 µM ([29]; 5 μM) of 100%. It also gave a remaining binding at 10 µM ([29]; 10 μM) of 92%, a remaining binding at 5 µM ([30]; 5 μM) of 100% and a remaining binding at 10 µM ([30]; 10 μM) of 100%.
